Values joined by “and” are separate entries in the source; they are usually repeats but may differ in a detail not shown here. Identical values can stand only once.
How the values were obtained:
[1] = tested on: HCT116 xenograft tumors; assay: Western blot of HCT116 xenograft tumor tissues; assay type: in vivo, nude mice; conditions: 200 mg/kg oral daily for 7 days
Method: For total lysate, cells were lysed with the 120 µL ice-cold lysis buffer [10 mmol/L Tris-HCl (pH 7.4), 150 mmol/L NaCl, 1 mmol/L EGTA, 1 mmol/L phenylmethylsulfonyl fluoride, 10 µg/mL aprotinin, 10 µg/mL leupeptin, 1 mM sodium orthovandate, 1 mM NaF, and 1% Triton X-100]. Cell lysates were centrifuged at 13,000 rpm for 30 min. […] After 1 h incubation at room temperature in PBS/5% nonfat milk, the membrane was washed with PBS/0.1% and incubated with the indicated antibodies at 4°C overnight. After washings with PBS/0.1% Tween 20, the corresponding secondary antibodies were applied to the membranes for 1 h at room temperature. The membranes were then washed with PBS/0.1% Tween 20 and the detection of signal was done with an enhanced chemiluminescence detection kit (Amersham, Buckinghamshire, UK).
(§1) Once a tumor was palpable with the size of approximately 55 mm^3, mice were randomized into vehicle control and treatment groups (8 mice per group). Control mice received the vehicle (0.5% carboxymethyl cellulose +0.1% Tween 80). Tumors in all 3 groups were allowed to reach an endpoint volume of 1,200 mm^3.

[2] = Body weight and adverse effects in xenograft study; assay type: in vivo, nude mice; conditions: HCT116 xenograft mice, oral daily treatment
Method: (A) Tumors were measured regularly and growth delay was calculated for treatment groups relative to control tumors (TGD). (B) Kaplan-Meier survival analysis was based on the tumor growth endpoint. (C) Inhibition of tumor growth curves represented a mean±SEM and percentage change in mean tumor volume (percent TGI). (D) Body weights were measured daily during the first week and then 2 times per week. The body weight ratio was calculated relative to the baseline measurement.
as §1

[3] = tested on: human HCT116 colorectal cancer xenograft; assay: HCT116 xenograft, tumor growth delay to 1,200 mm^3 endpoint; assay type: in vivo, nude mice
Method: The human HCT116 colorectal adenocarcinoma cells used for implantation were harvested during log phase growth and resuspended in phosphate-buffered saline at 5×10^7 cells/mL. Each mouse was injected s.c. in the right flank with 1.0×10^7 cells (0.2 mL cell suspension). Tumors were monitored twice weekly and then daily as their volumes approached 1,200 mm^3. Tumor size, in mm^3, was calculated from: where w = width and l = length in mm of the tumor. Tumor volume = (w^2×l)/2.
The logrank test was used to determine the statistical significance of the difference between the TTE values of two groups, except any NTR deaths. […] The two-tailed statistical analyses were conducted at P = 0.05. Kaplan-Meier plots show the percentage of animals remaining in the study versus time. The Kaplan-Meier plots use the same data set as the logrank test.
as §1

[4] = tested on: HCT116 cells; assay: Flow cytometry cell cycle / sub-G1 analysis; assay type: cell-based, human
Method: After centrifugation, cells were incubated in 0.1 mol/L phosphate-citric acid buffer [0.2 mol/L NaHPO4, 0.1 mol/L citric acid (pH 7.8)] for 20 min at room temperature. Then, the cells were centrifuged and resuspended with 0.5 mL PI solution containing Triton X-100 (0.1%, v/v), RNase (100 µg/mL), and PI (80 µg/mL). DNA content was analyzed with the FACScan and CellQuest software (Becton Dickinson).

[5] = tested on: HCT116 cells; assay: Western blot histone H3 and α-tubulin acetylation; assay type: cell-based, human; conditions: 24 h
Method: For total lysate, cells were lysed with the 120 µL ice-cold lysis buffer [10 mmol/L Tris-HCl (pH 7.4), 150 mmol/L NaCl, 1 mmol/L EGTA, 1 mmol/L phenylmethylsulfonyl fluoride, 10 µg/mL aprotinin, 10 µg/mL leupeptin, 1 mM sodium orthovandate, 1 mM NaF, and 1% Triton X-100]. Cell lysates were centrifuged at 13,000 rpm for 30 min. For Western blot analysis, the amount of protein (40 µg) was separated by electrophoresis in a 10% or 15% polyacrylamide gel and transferred to a polyvinylidene difluoride (PVDF) membrane. After 1 h incubation at room temperature in PBS/5% nonfat milk, the membrane was washed with PBS/0.1% and incubated with the indicated antibodies at 4°C overnight. After washings with PBS/0.1% Tween 20, the corresponding secondary antibodies were applied to the membranes for 1 h at room temperature. The membranes were then washed with PBS/0.1% Tween 20 and the detection of signal was done with an enhanced chemiluminescence detection kit (Amersham, Buckinghamshire, UK).

[6] = tested on: HCT116 cells; assay: Sulforhodamine B cell growth assay; assay type: cell-based; conditions: Homo sapiens, HCT-116, 48 h
Method: HCT116, MDAMB231 and NCI-ADR cells were seeded in 96-well plates in medium with 5% fetal bovine serum overnight. Cells were fixed with 10% trichloroacetic representing cell population at the time of drug treatment (T 0). […] Excess Sulforhodamine B was washed away by 1% acetic acid and dye-containing cells were lysed with 10 mmol/L Trizma base. […] By measuring time zero (T 0), control growth (C), and cell growth in the presence of the drug (Tx), the percentage growth was calculated. Percentage growth inhibition was calculated as 100-[(Tx–T 0)/(C-T 0)]×100.

SMILES: O=C(CCCCCCC(=O)Nc1ccccc1)NO [SAHA, suberoylanilide hydroxamic acid, reference compound]
- expression of caspase 3, PARP, acetyl-histone H3 and acetyl-tubulin in xenograft tumors [1]: acetyl-µ-tubulin were found more profoundly
- body weight and other adverse effects [2]: No significant body weight difference or other adverse effects
- Median TTE ([3]; 200 mg/kg po qd to endpoint 1200 mm^3): 27.0 days
- No. of CR (complete regression) ([3]; 200 mg/kg po qd, 8 mice per group): 0
- %TGD (tumor growth delay) ([3]; 200 mg/kg po qd, [(T-C)/C]×100): 63%
- T-C ([3]; 200 mg/kg po qd, median TTE treated versus control): 10.0 days and 10 days
- sub-G1 population (flow cytometry) [4]: weaker effect and delayed cytotoxicity
- α-tubulin acetylation (western blot) [5]: exhibited more potent α-tubulin acetylation than MPT0E028
- GI50 [6]: 820 ± 70 nM

From paper PMC3425516 (PLoS ONE, 2012)
